Data as given in US5879896A, “Method of screening for inhibitors of human thyrotropin releasing hormone (TRH) receptor” (Takeda Chemical Industries, Ltd., priority 1993, dated 1999).
Read-outs that look alike come from different tables or passages of the source.

What was measured:
CHO dhfr- cells = experiment: Release of [3H]-labeled arachidonic acid from control CHO dhfr- cells (Example 7); format: cell-based, Chinese hamster; conditions: TRH added (FIG. 10)
Method: (§1) CHO cells into which the human TRH receptor DNAs obtained in Example 4 were subcultured at a density of 1.0×10^6 cells/well to a 12-well tissue culture plate (Sumitomo Bakelite) and cultivated for 24 hours. The medium was removed and replaced by a fresh medium. Then, [^3 H] […] arachidonic acid (du Pont/NEN, specific activity: 60-100 Ci/mmol) was added to give a concentration of 0.5 μCi/well. After addition of arachidonic acid, the cells were further cultivated for 24 hours, and washed three times with Hanks' balanced salt solution (HBSS) supplemented with 0.05% BSA. Thereafter, 495 μl/well of HBSS supplemented with 0.05% BSA was added thereto. Then, 5 μl of a test solution was added thereto, and incubation was conducted for 30 minutes at room temperature to release arachidonic acid in the medium. HBSS (400 μl) of the supernatant was recovered, and mixed with liquid scintillator A (Wako Pure Chemical Industries). The amount of released [^3 H]-labeled arachidonic acid was measured by use of a liquid scintillation counter (Beckmann).

human TRH receptor [1] = target: T1, human TRH receptor (Homo sapiens, UniProt P34981); experiment: c-fos promoter / secretive alkaline phosphatase assay in human TRH receptor expression CHO cells (Example 9); format: cell-based; set-up: translation frame (open reading frame) of the human TRH receptor was constructed on pUC118; expressed in transfected cells; host or cells: CHO dhfr- cells (plasmid pAKKO1.11 with the human TRH receptor open reading frame); conditions: c-fos promoter activation, overnight (FIG. 14)
T1 sequence (P34981 1-398): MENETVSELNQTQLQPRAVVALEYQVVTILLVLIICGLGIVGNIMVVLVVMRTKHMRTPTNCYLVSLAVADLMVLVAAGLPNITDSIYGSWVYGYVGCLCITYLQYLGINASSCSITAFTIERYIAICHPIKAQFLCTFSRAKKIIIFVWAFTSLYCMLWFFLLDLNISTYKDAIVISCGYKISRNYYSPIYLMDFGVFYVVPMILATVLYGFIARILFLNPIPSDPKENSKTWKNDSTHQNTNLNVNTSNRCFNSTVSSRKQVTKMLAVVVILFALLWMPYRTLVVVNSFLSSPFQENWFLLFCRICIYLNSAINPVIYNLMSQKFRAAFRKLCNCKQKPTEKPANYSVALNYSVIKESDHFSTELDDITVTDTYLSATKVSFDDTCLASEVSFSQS
Method: An insertion of a secretive alkaline phosphatase gene linked to a c-fos promoter into a TRH receptor expression cell was conducted as follows:
5×10^5 TRH receptor expression CHO cells were inoculated onto a 10 cm plate and they were cultivated for 24 hours in Ham's F12 medium (Lifetech Oriental) equipped with 10% fetal bovine serum. 3 μg of a vector (pSVP4-Ap-neo, FIG. 13) which was introduced by a secretive alkaline phosphatase gene downstream from the c-fos promoter was introduced into the CHO cells using a gene introducing kit (Cell Phect, Pharmacia) by calcium phosphate method. The cells introduced by the vector were cloned in the above-described medium equipped with 500 μg/ml of G418. 39 clones were isolated and clones which have high TRH responsiveness were further selected.
Cell stimulating activity through a TRH receptor using activation of c-fos promoter as an indicator was assayed as follows:
Each 5×10^4 of the above-described transformants were inoculated onto 96 hole plates for tissue cultivation (Corning) and they were cultivated for a night. […] The plate was assayed by a fluorescence plate reader (Fluoroskan II, Titertek) at 365 nm of excitation and 450 nm of luminescence.

human TRH receptor [2] = target: T1, human TRH receptor; experiment: Release of [3H]-labeled arachidonic acid from CHO cells into which human TRH receptor DNAs were introduced (Example 7); format: cell-based; set-up: translation frame (open reading frame) of the human TRH receptor was constructed on pUC118; expressed in transfected cells; host or cells: CHO dhfr- cells (plasmid pAKKO1.11 with the human TRH receptor open reading frame); conditions: TRH concentration dependence, compared with control (HBSS alone) (FIG. 10)
Method: as §1
Further, in the receptor binding experiment of Example 6, the releasing activity of arachidonic acid was measured using 4 kinds of compounds strongly that can antagonize the binding of [^3 H]

pituitary glands = conditions: literature; cited from earlier work
human TRH receptor [3] = target: T1, human TRH receptor; experiment: Antagonism of [3H]TRH binding in CHO dhfr- cells transformed with human TRH receptor DNA (Examples 5 and 6); set-up: translation frame (open reading frame) of the human TRH receptor was constructed on pUC118; expressed in transfected cells; host or cells: CHO dhfr- cells (plasmid pAKKO1.11 with the human TRH receptor open reading frame); conditions: 1 h
human TRH receptor [4] = target: T1, human TRH receptor; experiment: [3H]TRH binding to Sf9 cells infected with recombinant baculovirus carrying human TRH receptor genes (Example 3); set-up: translation frame (open reading frame) of the human TRH receptor was constructed on pUC118; expressed in transfected cells; conditions: 1000-fold unlabeled TRH (10 μM) (FIG. 8)
[5] = read-out: Antagonistic Rate (%) at Each Concentration (-log M)
[6] = read-out: Antagonistic Rate (%) at Each Concentration (-log M) (*1)

Question: Which results are given for `NC(=O)[C@@H]1CCCN1C(=O)[C@H](Cc1cnc[nH]1)NC(=O)[C@@H]1CCC(=O)N1` [TRH, pGlu His Pro NH2]?
Answer: Amount of arachidonic acid released, in words (CHO dhfr- cells): no change was observed; Alkaline phosphatase secretion into supernatant, in words (human TRH receptor [1]): alkaline phosphatase secrets into the supernatant depending on the concentration of TRH added; Amount of arachidonic acid released, in words (human TRH receptor [2]): increase the amount of arachidonic acid released depending upon the concentration; Secretion of pituitary hormones, in words (pituitary glands): promoting secretion of thyroid stimulating hormone and prolactin of the pituitary glands; inhibition at 1 pM (human TRH receptor [3]; [5]): 0%; inhibition at 10 pM (human TRH receptor [3]; [5]): 0.7%; inhibition at 0.0001 µM (human TRH receptor [3]; [5]): 0.3%; inhibition at 0.001 µM (human TRH receptor [3]; [5]): 7.2%; inhibition at 0.01 µM (human TRH receptor [3]; [5]): 52%; inhibition at 0.1 µM (human TRH receptor [3]; [5]): 90.7%; inhibition at 1 µM (human TRH receptor [3]; [5]): 98.7%; inhibition at 10 µM (human TRH receptor [3]; [5]): 99.7%; inhibition at 0.0001 µM (human TRH receptor [3]; [6]): -0.7%; inhibition at 0.001 µM (human TRH receptor [3]; [6]): 4.2%; inhibition at 0.01 µM (human TRH receptor [3]; [6]): 39.8%; inhibition at 0.1 µM (human TRH receptor [3]; [6]): 83.9%; inhibition at 1 µM (human TRH receptor [3]; [6]): 97.8%; inhibition at 10 µM (human TRH receptor [3]; [6]): 99.7%; Antagonism of [3H]TRH binding by unlabeled TRH, in words (human TRH receptor [4]): antagonized the binding
